Assay results reported in US6867186B2, “Cell-permeable protein inhibitors of calpain” (New England Medical Center Hospital, priority 1997, dated 2005).
“Also recorded” adds a separate entry of the source. Read-outs that look alike come from different tables or passages of the source.

What was measured:
platelets [1] = test: cells; set-up: increase in P-selectin surface expression over unstimulated: dose or concentration left out as unconfirmed
Description: To determine whether S-TIPPEYIN could inhibit α-granule secretion in platelets, surface expression of P-selectin, which indicates α-granule secretion, was induced with the thrombin peptide SFLLR (SEQ ID NO:5) and analyzed by flow cytometry using an antibody against P-selectin. Blood from healthy volunteers was collected into sodium citrate (4% w/v) and centrifuged at 200×g for 10 minutes to prepare platelet-rich plasma (PRP), from which platelets were subsequently purified by gel filtration using a SEPHAROSE 2B column in PIPES buffer. Twenty μl of platelets (approximately 2×10^8 platelets/ml) were aliquoted into eppendorf tubes and one μl of S-TIPPEYIN, TIPPEYIN (lacking the signal peptide sequence), or S-TIPPEY-ala was added to achieve final concentrations of 6.25, 12.5, 25, 50, or 100 μM. The platelets were then incubated for 2 hours at 37° C. and subsequently exposed to either 1 μl PBS (unstimulated) or 1 μl of SFLLR (SEQ ID NO:5; stimulated) at the indicated concentration. After 30 seconds, a 7.5 μl aliquot was transferred to an eppendorf tube containing non-immune serum having antibodies that were conjugated to phycoerythrin. Following a 20 minute incubation at room temperature, the mixture was diluted with 1 ml of 2% paraformaldehyde and incubated at 4° C. for two hours. Antibody binding to platelet surface P-selectin was quantified using a FACSCAN flow cytometer (Becton Dickerson, San Jose, Calif.). Results were reported as the geometric mean of the relative fluorescence.
Platelets were pre-incubated with increasing concentrations of calpeptin, MDL, E64d, or DMSO (vehicle control) for ten minutes prior to stimulation with SFLLR.

μ-calpain = molecular target: T1, μ-calpain (Sus scrofa, UniProt P35750); test: Fluorometric calpain assay, suc-LLVY-AMC substrate; type: biochemical, porcine
T1 construct: pure p-calpain (porcine erythrocyte) was obtained from Chemicon; purchased Chemicon; host or cells: porcine erythrocyte
T1 sequence (P35750 1-714): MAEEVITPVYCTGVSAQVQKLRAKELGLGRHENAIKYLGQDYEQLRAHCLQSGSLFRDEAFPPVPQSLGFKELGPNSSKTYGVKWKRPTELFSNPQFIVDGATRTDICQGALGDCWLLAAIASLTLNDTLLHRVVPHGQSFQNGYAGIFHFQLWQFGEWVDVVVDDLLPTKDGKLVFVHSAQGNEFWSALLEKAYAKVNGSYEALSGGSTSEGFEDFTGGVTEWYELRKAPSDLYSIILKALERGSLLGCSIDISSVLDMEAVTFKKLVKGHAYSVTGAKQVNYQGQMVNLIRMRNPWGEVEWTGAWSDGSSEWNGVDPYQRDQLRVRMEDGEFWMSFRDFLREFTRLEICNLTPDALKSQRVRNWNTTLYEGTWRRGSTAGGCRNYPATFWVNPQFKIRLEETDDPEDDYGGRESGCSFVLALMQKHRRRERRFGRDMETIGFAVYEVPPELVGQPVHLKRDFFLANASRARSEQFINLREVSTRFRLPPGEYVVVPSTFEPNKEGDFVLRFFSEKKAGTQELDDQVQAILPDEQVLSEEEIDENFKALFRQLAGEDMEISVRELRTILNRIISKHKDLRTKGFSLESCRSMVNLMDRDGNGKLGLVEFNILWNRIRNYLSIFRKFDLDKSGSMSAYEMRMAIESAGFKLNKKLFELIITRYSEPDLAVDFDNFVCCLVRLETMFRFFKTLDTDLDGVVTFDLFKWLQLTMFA
T1 sequence (P04574 1-266 partner): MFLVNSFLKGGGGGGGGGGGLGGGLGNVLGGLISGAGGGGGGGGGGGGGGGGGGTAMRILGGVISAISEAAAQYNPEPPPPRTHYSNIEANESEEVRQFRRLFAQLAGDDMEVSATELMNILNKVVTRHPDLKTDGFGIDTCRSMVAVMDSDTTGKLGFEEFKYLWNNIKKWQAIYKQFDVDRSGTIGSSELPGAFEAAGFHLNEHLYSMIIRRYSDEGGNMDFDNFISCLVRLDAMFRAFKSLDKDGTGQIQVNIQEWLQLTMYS
Source text: Unless otherwise noted, the materials used in the studies described below were obtained from commercial suppliers. Sepharose 2B was obtained from Pharmacia Biotech (Upsala, Sweden); pure p-calpain (porcine erythrocyte) was obtained from Chemicon; succinyl-LLVY-AMC (SEQ ID NO:7) was obtained from Bachem; A23187 was obtained from LC Labs; human alpha-thrombin was obtained from Hematologic Technologies (Essex Junction, VT); anti-P-selectin antibodies conjugated to phycoerythrin were obtained from Becton Dickinson (San Jose, Calif.); Oregon Green-phalloidin was obtained from Molecular Probes (Eugene, Oreg.). All other chemicals were ACS grade or better and were obtained from Sigma Chemical Company (St. Louis, Mo.).
To assess the ability of calpastat to inhibit calpain activity, a fluorometric calpain assay was performed. The assay determined specific peptidyl hydrolysis of the peptidyl 7-amino bond of suc-LLVY-AMC (SEQ ID NO:7) by calpain.
The assay was performed in a 0.5 ml reaction volume at 37° C. The reaction buffer contained 50 mM KC1, 10 mM Tris-HCl (pH 7.5), 1 mM EDTA, and 1 mM DTT. Two hundred μM suc-LLVY-AMC (SEQ ID NO:7) was added along with 5 mM CaCl2. Calpastat or S-TIPPEY-ala was then added at the given concentrations (FIG. 9). […] The initial rate of AMC production was measured by fluorimetry for the first few minutes. […]

platelets [2] = test: cells; type: cell-based; set-up: reduction in spreading on the glass surface: dose or concentration left out as unconfirmed
Description: Platelet activation on surfaces can be inhibited by […] or […] fusion proteins. […] The cellular area of spread platelets was determined by computer assisted image analysis using NIH Image 1.61. […] Percent inhibition of spreading was calculated from the increase in mean cell area for untreated and treated samples vs. unspread DMSO controls.

| Substance | effect on SFLLR-induced P-selectin surface expression (platelets [1]; pre-incubation, SFLLR stimulation) | inhibition of purified μ-calpain (μ-calpain; up to 10 μM, listed as S-TIPPEY-ala) | effect on platelet spreading (platelets [2]; spreading on glass) | IC50 (platelets [2]; spreading on glass, NI=no inhibition, read-out: IC50, inhibition of platelet spreading) | IC50 (platelets [1]) | P-selectin surface expression induced by ionophore A23187 (platelets [1]; A23187) | maximal inhibition of P-selectin surface expression (platelets [1]; FIG. 3, SFLLR) | increase in P-selectin surface expression over unstimulated (platelets [1]; SFLLR alone approximately 10-fold) | IC50 (platelets [1]; read-out: half-maximal inhibition of P-selectin surface expression, FIG. 3, SFLLR) | IC50 (μ-calpain; 70 nM enzyme, 37° C., read-out: IC50, μ-calpain cleavage of suc-LLVY-AMC) | IC50 (platelets [2]) | inhibition of platelet spreading relative to calpastat-ala control (platelets [2]; 100 μM, 30 minutes pre-incubation) | inhibition of platelet spreading relative to calpastat-ala control (platelets [2]; 100 μM, 60 minutes pre-incubation) | platelets round and unspread on glass (platelets [2]; 100 μM, 1.5 hours) | inhibition of platelet spreading relative to calpastat-ala control (platelets [2]; 100 μM, 90 minutes pre-incubation) | reduction in spreading on the glass surface (platelets [2]; 90 minutes at 37° C.) |
| --- | --- | --- | --- | --- | --- | --- | --- | --- | --- | --- | --- | --- | --- | --- | --- | --- |
| AAVALLPAVLLALLAPEKLAERADAAAPEAAELLEKKTGV [Calpastat-ala] | no effect | no inhibitory activity; also recorded: no inhibition | minimal inhibition | > 100 µM | – | – | – | – | – | – | – | – | – | – | – | – |
| H-AAVALLPAVLLALLAPEKLGERDDTIPPEYRELLEKKTGV-OH [Calpastat] | – | – | – | – | 30 µM | inhibited | 40 to 60 µM | 5 fold | 15 to 20 µM | 0.05 µM | 35 µM | 0% | 46% | Half | 80% | 70% |
